Experiments:
[1] = target: Granzyme B (Homo sapiens) (UniProt P10144); experiment: Apparent second-order rate constant was determined by the inhibition of Granzyme B with the compound at the concentration 150 mM; ki/Ki(1/M*s), Not inhibited
Staphylococcus aureus = experiment: Apparent second-order rate constant was determined by the inactivation of Staphylococcus aureus V8 proteinase with the compound at the concentration 100 mM(pH 7.4); ki/Ki(1/M*s); assay type: functional

Sequence of Granzyme B (Homo sapiens) (P10144 whole entry): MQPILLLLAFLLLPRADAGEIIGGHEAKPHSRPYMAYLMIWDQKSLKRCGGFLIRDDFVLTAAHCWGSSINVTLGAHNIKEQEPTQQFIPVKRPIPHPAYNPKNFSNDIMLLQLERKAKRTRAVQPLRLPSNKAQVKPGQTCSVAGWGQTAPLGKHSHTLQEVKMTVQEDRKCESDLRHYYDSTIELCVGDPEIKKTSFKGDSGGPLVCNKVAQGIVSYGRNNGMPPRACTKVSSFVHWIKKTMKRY

| SMILES | Activity [1] | Activity (Staphylococcus aureus) |
| --- | --- | --- |
| CC(=O)N[C@H](CC(=O)O)P(=O)(Oc1ccccc1)Oc1ccccc1 | No inhibition | 5 |
| CC(=O)N[C@H](CCC(=O)O)P(=O)(Oc1ccccc1)Oc1ccccc1 | No inhibition | 5.3 |

— ChEMBL document CHEMBL1130861, “Synthesis and proteinase inhibitory properties of diphenyl phosphonate analogues of aspartic and glutamic acids” (1998)
